Reference: patent publication US12605453B2, “CP2C-targeting peptide-based anticancer agent” (Industry-University Cooperation Foundation Hanyang …, priority 2019, dated 2026)
*1 amine or outer side, *2 acyl side, *3 side chain or, on linkers, in order; H or OH if unused. Where a SMILES comes first, the peptide text is derived from it. Bridges are numbered along the chain shown (N, C = ends). Roman numbers before positions name the chains, in order. Side-chain parts run from the residue outwards. The star is where a group is joined. γGlu = O=C(O)[C@H](CCC(=O)[*:2])N[*:1]; Palmitoyl = CCCCCCCCCCCCCCCC(=O)*

Key:
[1] = system: MDA-MB-231 (LM1) xenograft mice; assay type: in vivo; conditions: for anticancer effect: tail vein 5 times at 3-day intervals
Description: The anticancer effect of ACP52CGK was analyzed in MDA-MB-231 (LM1) xenograft mice in the same manner as in the Hep3B xenograft mouse model experiments.

[2] = ELISA for antibody formation in sera of injected rabbits (immunogenicity); conditions: rabbit, in vivo
From the text: To verify this, immunogenicity of ACP52CG and ACP52CK was directly tested in the process of deriving the final new drug candidate. Since the final candidate material might be a C-16 palmitoyl acid-conjugated ACP52C peptide, which is not different with ACP52CG and ACP52CK in terms of chemical composition, it was decided to analyze whether antibodies were formed on ACP52CG and ACP52CK. […] Therefore, it was concluded that the final candidate material (ACP52CGK) would also not show immunogenicity in the human body (FIG. 21).

[3] = system: liver cancer induced by DEN treatment; assay: Liver cancer mouse model induced by DEN treatment; assay type: in vivo; conditions: for efficacy: mice 15 weeks after DEN treatment
Description: In addition, […] (7 to 8 mice/group), such as a control group (mock) treated with only a vehicle, a sorafenib group (an approved drug for liver cancer treatment), and an ACP52CG-GFLGE (SEQ ID NO: 16) (ACP52CK) group. The drug was injected through the tail vein a total of 12 times at a concentration of 5 mg/kg at 3-day intervals.

[4] = system: various cancer cell lines; assay: In vitro anticancer effect of C16 fatty acid-binding peptides in various cancer cells; assay type: cell-based; conditions: for GI50 values compared with control (ACP52C): 48 hours after treatment; for cancer cell-specific cell death: compared with control ACP52C
Description: The anticancer effect of the CP2c-targeting peptide-fatty acid conjugate synthesized in Preparation Example 2 was analyzed in various cancer cells.

Hep3B xenograft mice = assay type: in vivo
Description: To analyze the anticancer efficacy of the CP2c target peptide-fatty acid conjugates synthesized in Preparation Example 2 in animal models, ACP52CG and ACP52CK were injected into the Hep3B xenograft mice via tail vein 5 times at 3-day intervals.
ACP52CGK was injected into the Hep3B xenograft mice via tail vein at 3 different concentrations (1.39, 2.77, or 5.54 mg/kg) 5 times at 3-day intervals. The tumor volume was measured at every three days after drug injection. The tumor and major tissues were excised from the mice sacrificed on the 24th day after the tumor cell injection. The tumor was weighed and fixed with 4% formaldehyde together with major organs. After making tissue slides through paraffin sections, hematoxylin/eosin staining was performed. The collected blood samples were subjected to basic CBC analysis using a Coulter LH 750 hematology analyzer. The acquired data were statistically processed using an Excel program.
ACP52CGK was injected into Hep3B xenograft mice via tail vein 5 times at intervals of 5 days at 3 different concentrations (1.39, 2.77, 5.54 mg/kg), and the anticancer effect was evaluated in the same manner as described above. […] As a result of a comprehensive analysis of all the results, 2.77 mg/kg was the optimal concentration.

[5] = Repeated toxicity test of ACP52CGK, 28 days, female and male mice; assay type: in vivo, mouse; conditions: 100 mg/kg
Description: A repeated toxicity test for the in vivo administration of ACP52CGK was conducted using female and male mice. […] As a full-scale experiment, after intravenous infusion of ACP52CGK for 28 days at 3-day intervals into the solvent group and high-dose group (100 mg/Kg) of 6 males and females each, the weight change, drinking water intake, and main histological analysis of organs, organ weight, hematological tests and blood biochemical tests were analyzed.

[6] = system: cells primary cultured from PDX (patient derived xenograft) tumor tissue; assay: Efficacy in cells primary cultured from PDX tumor tissue; assay type: cell-based
[7] = In vivo half-life by live imaging of Cy5-labeled peptide fluorescence in the mouse body; conditions: whole body (mouse body, live imaging), intravenous
Description: To analyze the in vivo half-life of ACP52CGK, Cy5-labeled ACP52CGK was injected into the tail vein of the mouse, and then the fluorescence intensity remaining in the mouse body was measured over time by live imaging process.

normal cell line = assay: Cell growth analysis in normal cell line; assay type: cell-based
From the text: FIGS. 10a to 10g illustrate cell growth analysis results dependent upon treatment with ACP52CGK (=γC16-ACP52 cm) in normal cell lines (BEAS2B and hMSC) and cancer cell lines (Hep3B, Hs746T, Caov-3, MDA-MB-231, U343, HCT116, PANC1, PC3, A549, and THP-1).

caspase2 = assay: Immunoblot of MDM2p90 and MDM2p60 after caspase2 inhibitor treatment; assay type: cell-based; conditions: lung cancer cells
Description: Meanwhile, when a caspase2 inhibitor (AC-VDVAD (SEQ ID NO: 11)-CHO) was treated to identify a phenomenon that occurs due to the high activity of caspase2 specifically in lung cancer cells, it was found by immunoblot that the protein amount of MDM2p90 increased, while the protein amount of MDM2p60 decreased according to the treatment with the Caspase2 inhibitor. Therefore, we concluded that the MDM2p60 form, which is overexpressed in lung cancer cells, is the result of cleavage of MDM2p90 by caspase2. […] As a result, efficacy was observed around GI50˜1 μM in the group treated with the combination of the caspase 2 inhibitor and ACP52C (FIGS. 34a to 34d, FIG. 35).

[8] = tail vein 5 times at 3-day intervals

CCCCCCCCCCCCCCCC(=O)NCC(=O)N[C@@H](Cc1ccccc1)C(=O)N[C@@H](CC(C)C)C(=O)NCC(=O)N[C@@H](CCC(=O)O)C(=O)NCCCC[C@H](NC(C)=O)C(=O)NCC(=O)NCC(=O)N[C@@H](CC(N)=O)C(=O)N[C@@H](Cc1ccc(O)cc1)C(=O)N1CCC[C@H]1C(=O)N[C@@H](CCC(N)=O)C(=O)N[C@@H](CCCNC(=N)N)C(=O)N1CCC[C@H]1C(=O)N[C@@H](CS)C(=O)N[C@@H](CCCNC(=N)N)C(=O)NCC(=O)N[C@@H](CC(=O)O)C(=O)N[C@@H](CCCCN)C(=O)NCC(=O)N1CCC[C@H]1C(=O)N[C@@H](CC(=O)O)C(=O)N[C@@H](CS)C(N)=O [ACP52CK] (I: Ac-KGGNYPQRPCRGDKGPDC-NH2 / II: Palmitoyl-GFLGE; amide I:1-II:C)
anticancer effect [1]: showed tumor regression efficacy, but the anticancer effect was not significant
immune response of sera from rabbits injected with ACP52CG and ACP52CK three times (ELISA) [2]: did not induce immune responses
efficacy [3]: superior to another control, FQI1, but did not show any superior efficacy compared to ACP52C
GI50 values compared with control (ACP52C) [4]: like or more efficient than that of the control
cancer cell-specific cell death [4]: induced cancer cell-specific cell death similarly to the control group
anticancer efficacy (Hep3B xenograft mice; [8]): showed similar efficacy to sorafenib, but their efficacy was inferior to that of ACP52C

CCCCCCCCCCCCCCCC(=O)N[C@@H](CCC(=O)O)C(=O)NCCCC[C@H](NC(C)=O)C(=O)NCC(=O)NCC(=O)N[C@@H](CC(N)=O)C(=O)N[C@@H](Cc1ccc(O)cc1)C(=O)N1CCC[C@H]1C(=O)N[C@@H](CCC(N)=O)C(=O)N[C@@H](CCCNC(=N)N)C(=O)N1CCC[C@H]1C(=O)N[C@@H](CS)C(=O)N[C@@H](CCCNC(=N)N)C(=O)NCC(=O)N[C@@H](CC(=O)O)C(=O)N[C@@H](CCCCN)C(=O)NCC(=O)N1CCC[C@H]1C(=O)N[C@@H](CC(=O)O)C(=O)N[C@@H](CS)C(N)=O [ACP52CG] (Ac-K([Glu-Palmitoyl])GGNYPQRPCRGDKGPDC-NH2)
anticancer effect [1]: showed tumor regression efficacy, but the anticancer effect was not significant
immune response of sera from rabbits injected with ACP52CG and ACP52CK three times (ELISA) [2]: did not induce immune responses
efficacy [3]: superior to another control, FQI1, but did not show any superior efficacy compared to ACP52C
GI50 values compared with control (ACP52C) [4]: like or more efficient than that of the control
cancer cell-specific cell death [4]: induced cancer cell-specific cell death similarly to the control group
anticancer efficacy (Hep3B xenograft mice; [8]): showed similar efficacy to sorafenib, but their efficacy was inferior to that of ACP52C

CNC(=O)c1cc(Oc2ccc(NC(=O)Nc3ccc(Cl)c(C(F)(F)F)c3)cc2)ccn1 [sorafenib, reference compound]
anticancer effect compared to the control group ([3]; mice 22 weeks after DEN treatment, 5 mg/kg tail vein 12 times at 3-day intervals): significant anticancer effect (p=0.04)

CCCCCCCCCCCCCCCC(=O)N[C@@H](CCC(=O)NCCCC[C@H](NC(=O)CNC(=O)CNC(=O)[C@@H]1CCCN1C(=O)[C@H](CCCNC(=N)N)NC(=O)[C@H](CCC(N)=O)NC(=O)[C@@H]1CCCN1C(=O)[C@H](Cc1ccc(O)cc1)NC(=O)[C@H](CC(N)=O)NC(C)=O)C(=O)NCC(=O)NCC(=O)N[C@@H](CS)C(=O)N[C@@H](CCCNC(=N)N)C(=O)NCC(=O)N[C@@H](CC(=O)O)C(=O)N[C@@H](CCCCN)C(=O)NCC(=O)N1CCC[C@H]1C(=O)N[C@@H](CC(=O)O)C(=O)N[C@@H](CS)C(N)=O)C(=O)O [ACP52CGK] (Ac-NYPQRPGGK([γGlu-Palmitoyl])GGCRGDKGPDC-NH2)
Relative organ weight, Kidney ([5]; female mice): 1.34 ± 0.06%
Relative organ weight, Kidney ([5]; male mice): 1.50 ± 0.08%
Absolute organ weight, Epididymis ([5]; mouse, in vivo): 0.0482 ± 0.0127 g
Absolute organ weight, Ovary ([5]; mouse, in vivo): 0.0059 ± 0.0012 g
Absolute organ weight, Testis ([5]; mouse, in vivo): 0.1693 ± 0.0169 g
Absolute organ weight, Uterus ([5]; mouse, in vivo): 0.0638 ± 0.0227 g
Relative organ weight, Epididymis ([5]; mouse, in vivo): 0.24 ± 0.07%
Relative organ weight, Ovary ([5]; mouse, in vivo): 0.0326 ± 0.0054%
Relative organ weight, Testis ([5]; mouse, in vivo): 0.83 ± 0.08%
Relative organ weight, Uterus ([5]; mouse, in vivo): 0.35 ± 0.12%
sensitivity across PDX generations ([6]; cells derived from the same origin, each generation): not significantly different
resistance ([6]; primarily cultured cells from some PDX tumor tissues): showed resistance
tumor suppression and metastasis inhibition effects ([1]; 1.39, 2.77, or 5.54 mg/kg, 3-day and 5-day intervals): superior to those of the sorafenib and ACP52C-treated groups
optimal concentration ([1]; mouse, in vivo): 2.77 mg/kg
half-life [7]: ~20.2 h
immune response of sera from rabbits injected with ACP52CG and ACP52CK three times (ELISA) [2]: did not induce immune responses
effect on normal cells (normal cell line): no significant effect on normal cells
GI50 values compared with control (ACP52C) [4]: like or more efficient than that of the control
cancer cell-specific cell death [4]: induced cancer cell-specific cell death similarly to the control group
tumor inhibition and metastasis inhibition effects (Hep3B xenograft mice; 1.39, 2.77, 5.54 mg/kg, tail vein 5 times at intervals of 5 days): tumor inhibition and metastasis inhibition effects superior to the sorafenib and ACP52C treatment groups
tumor metastasis inhibition effect (tumor area metastasized to the lung) (Hep3B xenograft mice; 1.39, 2.77, or 5.54 mg/kg, 5 times at 3-day intervals): superior to ACP52C in the tumor metastasis inhibition effect
tumor suppressive effect (Hep3B xenograft mice; 1.39, 2.77, or 5.54 mg/kg, tail vein 5 times at 3-day intervals): tumor suppressive effect similar to that of ACP52C
optimal concentration (Hep3B xenograft mice; comprehensive analysis of 3-day and 5-day interval results): 2.77 mg/kg

AC-VDVAD (SEQ ID NO: 11)-CHO (Ac-VDVAD-aldehyde) [caspase2 inhibitor]
protein amount of MDM2p60 (caspase2): decreased
protein amount of MDM2p90 (caspase2): increased
